system: A673 NR0B1-luciferase reporter, viability-normalised luminescence; experiment: suppressors of NR0B1-promoter luciferase reporter, dose response, EWS/Fli inhibitor project, luciferase luminescence, A673 cells, cherry-pick (AID 686920)

Point of comparison: `N#CC1=C(N)Oc2cc(N)ccc2C1c1cccc(F)c1` (centres undefined), AC35 1.96 µM. Against it:
- Cc1ccc(S(=O)(=O)Nc2ccc3c(c2)C(=O)N([C@H](C)CO)C[C@H](C)[C@@H](CN(C)Cc2ccc(C(F)(F)F)cc2)OCCCC[C@H](C)O3)cc1 — 5.9-fold higher, 11.5 µM
- CN(C[C@H]1N[C@@H](CO)[C@@H]1c1ccc(C2=CCCC2)cc1)C(=O)c1ccc(F)cc1 — 2.9-fold higher, 5.59 µM
- C/C(=N\OCc1cccc(C(=O)O)c1)c1ccc(Cl)cc1 — 2.4-fold lower, 0.832 µM
- O=C(CCCN1C(=O)/C(=C/c2ccccc2Cl)SC1=S)NNC(=O)c1ccc(Cl)cc1Cl — 1.7-fold higher, 3.4 µM
- CC12CCC3C(CCC4(O)CC(O)CCC34C=NO)C1(O)CCC2C1=COC(=O)C1 (centres undefined) — 6.7-fold lower, 0.293 µM
- COc1cccc(-c2cc(NC=O)c3ncc(-c4ccc(C(C)=O)cc4)n3c2)c1 — 3.2-fold higher, 6.25 µM
- COc1ccc(/C=C2\SC(=O)N(CCCC(=O)Nc3cc(Cl)ccc3C(=O)O)C2=O)cc1 — 12-fold lower, 0.169 µM
- CO[C@H]1CN(C)C(=O)c2ccc(NC(=O)c3ccc(-c4ccccc4)cc3)cc2OC[C@H](C)NC[C@H]1C — 7.7-fold higher, 15 µM
- COc1ccc(C2=Nn3c(nnc3-c3ccccc3OC)SC2)cc1OCC1CC1 — 3.4-fold higher, 6.71 µM
- COc1cc(-c2coc3c(C(=O)NCc4ccc(C(F)(F)F)cc4)cccc23)ccc1O — within 1.5-fold, 2.21 µM
- CC1=NC(=O)C(N=Nc2cccc(C(=O)O)c2)N1c1ccccc1 (centres undefined) — 3.6-fold higher, 6.99 µM
- COC1C(C)OC(OC2CC(C)(O)Cc3cc4c(c(O)c32)C(=O)c2c(O)cc3c(c2C4=O)OC2OC3(C)C(O)C(N(C)C)C2O)C(OC)C1(C)OC (centres undefined) — 24-fold lower, 0.0829 µM
- CCCCC[C@H](C)N1C[C@H](COCc2ccccc2)Oc2cc(N3CC[C@@H](N(C)C)C3)ccc2S1(=O)=O — 18-fold higher, 34.7 µM
- COc1ccc(Cl)cc1S(=O)(=O)Nc1ccc2c(c1)n(C)c(=O)n2C — 16-fold higher, 31.3 µM
- C[C@@H]1CN([C@H](C)CO)S(=O)(=O)c2ccc(C#Cc3ccncc3)cc2O[C@@H]1CN(C)C(=O)Nc1ccc2c(c1)OCO2 — 12-fold higher, 24.5 µM
- COc1ccc(/C=C2\SC(=S)N(CCCC(=O)NC3CCCC3)C2=O)cc1OC — 20-fold higher, 38.5 µM
- C[C@@H]1CCCCO[C@H](CN(C)Cc2ccc(C(=O)Nc3ccccc3N)cc2)[C@@H](C)CN([C@H](C)CO)C(=O)c2cc(NS(=O)(=O)c3ccc(F)cc3)ccc2O1 — 2.8-fold higher, 5.53 µM
- Cc1cccc(/C=C(\c2nc3ccccc3[nH]2)S(=O)(=O)c2ccccc2)c1 — 2.8-fold higher, 5.46 µM
- c1ccc(Nc2nnc(-c3ccc4c(c3)OCO4)o2)cc1 — 1.6-fold higher, 3.06 µM
- O=C(Nc1ccc2c(c1)OCO2)N1C[C@@H]2N[C@H](C1)C2c1ccc(C=Cc2ccccc2)cc1 (some centres undefined) — 9.7-fold higher, 19 µM
- C[C@H](CO)N1C[C@H](C)[C@H](CN(C)Cc2ccc(C(F)(F)F)cc2)Oc2ccc(NC(=O)CCCCCC(=O)Nc3ccccc3N)cc2CC1=O — 3.1-fold higher, 6.04 µM
- COCCCNc1ccn2nc(-c3ccccc3)cc2n1 — 5.2-fold higher, 10.1 µM
- NC1=CC(=O)C(=O)c2cccnc21 — 7.1-fold higher, 14 µM
- C[C@@H]1CN([C@@H](C)CO)C(=O)c2cccc(NS(=O)(=O)c3ccccc3)c2O[C@@H]1CN(C)Cc1ccc(C(=O)Nc2ccccc2N)cc1 — 2.9-fold higher, 5.67 µM
- O=C(O)c1cccc(N/N=C/c2cccs2)c1 — 1.6-fold lower, 1.25 µM
- O=c1ccc2ccccc2c2ccccc12 — 4.2-fold higher, 8.15 µM
- N#C[C@H]1N[C@H](CO)[C@H]1c1ccc(C#Cc2ccccc2F)cc1 — 14-fold lower, 0.137 µM
- C(=N\Nc1nc2ccccc2[nH]1)/c1ccccn1 — 2.8-fold higher, 5.58 µM
- O=C(CN1C(=O)C(=O)c2ccccc21)c1ccc(Cl)cc1 — 17-fold higher, 34.2 µM
- CC(C)=CCC/C(C)=C/CN1C(=O)N(c2ccc(F)cc2)[C@H]2C[C@@H](c3ccccc3)[C@@H](C)[C@@H](C(=O)N3CCOCC3)C[C@H]21 — 4-fold higher, 7.8 µM
- C=C(C(=O)c1ccccc1)C(C)C(=C)C(=O)c1ccccc1 — 2.8-fold higher, 5.4 µM
- COc1ccc(-c2sc3ccccc3c2-c2ccc(OCCN3CCCCC3)cc2)cc1 — 4-fold higher, 7.87 µM
- CCc1nc(N)nc(N)c1-c1ccc(Cl)cc1 — 2.6-fold higher, 5.12 µM
- O=C(/C=C/c1cc(Br)ccc1O)c1ccco1 — 5.5-fold higher, 10.7 µM
- O=C(CCCN1C(=O)S/C(=C\c2ccccc2)C1=O)NNC(=O)c1ccccc1O — 2.2-fold higher, 4.38 µM
- COc1ccc(Nc2ncnc3ccc(Br)cc23)c(OC)c1 — 3-fold higher, 5.94 µM
- Oc1c(C(c2ccc(Cl)cc2)N2CCCC2)cc(Cl)c2cccnc12 (centres undefined) — 5-fold higher, 9.79 µM
- Cc1cc2sc3ccc(C#CC4(O)CCCCC4)cc3c(=O)c2cc1C — lower, < 0.03 µM
- O=C1C(=O)N(CCS(=O)(=O)c2ccccc2)c2ccc(Cl)cc21 — 6.2-fold higher, 12.2 µM
- C=C1C(=O)OC2C1CCC(C)C1C=CC(=O)C12C (centres undefined) — 7.9-fold higher, 15.5 µM
- COc1ccc(NC(=O)N2CCCCN3[C@H](CO)[C@H](c4ccc(C#CCC(C)C)cc4)[C@H]3C2)cc1 — 5.1-fold higher, 9.98 µM
- CCOc1ccc(C(c2c(NC(=O)c3ccccc3)sc(C)c2C)N2CCN(CCO)CC2)cc1 (centres undefined) — 24-fold higher, 46.3 µM
- O=C1c2ccccc2C(=O)c2cc(N3CCCCC3)ccc21 — within 1.5-fold, 2.65 µM
- CC(=O)OC1CC(OC2C(O)CC(OC3C(O)CC(OC4CCC5(C)C(CCC6C5CCC5(C)C(C7=CC(=O)OC7)C(O)CC65O)C4)OC3C)OC2C)OC(C)C1OC1OC(CO)C(O)C(O)C1O (centres undefined) — 2.4-fold lower, 0.812 µM
- Cc1ccsc1/C=N/Nc1ccc(C(=O)O)cc1 — 1.6-fold higher, 3.1 µM
- COc1ccc2nc(-c3ccc(F)cc3)sc2c1 — 4.3-fold higher, 8.38 µM
- O=C(NCCc1ccccc1)c1ccccc1NC(=O)C1CCCO1 (centres undefined) — 3.5-fold higher, 6.89 µM
- CC(C)(C)c1ccc(Cn2c(=O)cnc3ccccc32)cc1 — 6.7-fold higher, 13.2 µM
- CCOC(=O)[C@]12Cc3ccc(C)cc3[C@H]1N(C1CCCCC1)C(=O)c1ccccc12 — 2.8-fold higher, 5.49 µM
- N#C[C@H]1[C@H](c2ccc(C#Cc3ccccc3F)cc2)[C@@H](CO)N1C(=O)C1CCOCC1 — 17-fold higher, 34 µM
- OC[C@H]1[C@@H](c2ccc(C#CC3CCCC3)cc2)[C@@H]2CN(CCC(F)(F)F)CCCCN12 — 4.7-fold higher, 9.24 µM
- COc1ccccc1/C=C1\SC(=S)N(CCC(=O)Nc2cc(C)on2)C1=O — 8.6-fold higher, 16.8 µM
- Cc1ccc(S(=O)(=O)N(C)C[C@@H]2Oc3cc(C#Cc4ccncc4)ccc3S(=O)(=O)N([C@@H](C)CO)C[C@H]2C)cc1 — 5-fold higher, 9.88 µM
- COc1ccc(S(=O)(=O)Nc2ccc3c(c2)C(=O)N([C@H](C)CO)C[C@@H](C)[C@@H](CN(C)CC2CCCCC2)OCCCC[C@H](C)O3)cc1 — 7.2-fold higher, 14.2 µM
- O=S(=O)(c1ccc(F)cc1)N1C[C@H]2[C@@H](c3ccccc31)[C@H](CO)N2Cc1ccccc1Cl — 17-fold higher, 33.7 µM
- CN1C2CCC1/C(=C/c1ccccn1)C(=O)/C2=C\c1ccccn1 — within 1.5-fold, 1.87 µM
- COc1ccc(Nc2oc(COc3ccccc3OC)nc2C#N)cc1 — 3.2-fold higher, 6.24 µM
- COc1ccccc1C(CCNCc1ccc(N(C)C)cc1)c1ccc(OC(C)C)cc1 (centres undefined) — 13-fold higher, 24.9 µM
- CCc1ccc(/C=C2\SC(=S)N(CCCC(=O)N3CCN(C)CC3)C2=O)cc1 — 11-fold higher, 21.3 µM
- C[C@H](CO)N1C[C@H](C)[C@H](CN(C)Cc2ccc(C(=O)Nc3ccccc3N)cc2)Oc2c(cccc2N(C)C)C1=O — 6.6-fold higher, 12.9 µM
- CCN1CCS/C1=C\C=C\C1=[N+](CC)CCS1 — 6.3-fold higher, 12.3 µM
- CCN1C/C(=C/c2ccc(OC)c(O)c2)C(=O)/C(=C/c2ccc(OC)c(O)c2)C1 — 8.8-fold higher, 17.3 µM
- Nc1nc(=S)c2ncn([C@@H]3O[C@H](CO)[C@@H](O)[C@H]3O)c2[nH]1 — 2.5-fold higher, 4.88 µM
- COc1ccc(C2=Nn3c([n+](C)c4ccccc43)SC2)cc1 — 24-fold higher, 46.5 µM
- COc1ccc(/C=C2\Oc3ccccc3C2=O)cc1 — 4.3-fold higher, 8.51 µM
- C[C@@H]1CN([C@@H](C)CO)S(=O)(=O)c2ccc(C#Cc3ccncc3)cc2O[C@H]1CN(C)S(=O)(=O)c1ccccc1 — 7.8-fold higher, 15.2 µM
- Cc1cc(C)cc(C(=O)NC(=S)Nc2ccc(Cc3ccncc3)cc2)c1 — 4.1-fold higher, 7.99 µM
- C[C@H](CO)N1C[C@H](C)[C@H](CN(C)Cc2ccccc2)Oc2ccc(NC(=O)CCCCCC(=O)Nc3ccccc3N)cc2CC1=O — 3-fold higher, 5.93 µM

Reference: PubChem BioAssay AID686920 (Broad Institute, 2013)
